Test results as given in patent US10238670B2, “9-aminomethyl minocycline compounds and methods of use thereof in urinary tract infection (UTI) treatment” (Paratek Pharmaceuticals, Inc., priority 2016, dated 2019).
In brackets after ≈: the same amount, converted by molar mass.

Assays:
Experiment in all cases: In vitro MIC, 2010 surveillance isolates
E. cloacae CeftazR = format: cell-based
K. pneumoniae ESBL+ = format: cell-based, Klebsiella pneumoniae
E. coli ESBL− = format: cell-based, Escherichia coli
E. cloacae CeftazS = format: cell-based
A. baumanii = format: cell-based
K. pneumoniae ESBL− = format: cell-based, Klebsiella pneumoniae
E. coli ESBL+ = format: cell-based, Escherichia coli
Acinetobacter spp = format: cell-based
K. oxytoca = format: cell-based
Enterobacter spp = format: cell-based

SMILES: NCC[C@H](O)C(=O)N[C@@H]1C[C@H](N)[C@@H](O[C@H]2O[C@H](CN)[C@@H](O)[C@H](O)[C@H]2O)[C@H](O)[C@H]1O[C@H]1O[C@H](CO)[C@@H](O)[C@H](N)[C@H]1O [Amikacin]
- % R (resistance) (E. cloacae CeftazR; Asia/Pac, Eucast breakpoints): 9.5%
- MIC90 (E. cloacae CeftazR; Asia/Pac, N=63): 16 µg/mL (≈ 27.3 µM)
- % R (resistance) (E. cloacae CeftazR; Europe, Eucast breakpoints): 1.4%
- MIC90 (E. cloacae CeftazR; Europe, N=72): 8 µg/mL (≈ 13.7 µM)
- % R (resistance) (E. cloacae CeftazR; L. Amer, CLSI breakpoints): 7.1%
- MIC90 (E. cloacae CeftazR; L. Amer, N=42): 16 µg/mL (≈ 27.3 µM)
- % R (resistance) (E. cloacae CeftazR; N America, CLSI breakpoints): 0%
- MIC90 (E. cloacae CeftazR; N America, N=77): 4 µg/mL (≈ 6.83 µM)
- % R (resistance) (K. pneumoniae ESBL+; Asia/Pac, Eucast breakpoints): 23.4%
- MIC90 (K. pneumoniae ESBL+; Asia/Pac, N=124): > 32 µg/mL
- % R (resistance) (K. pneumoniae ESBL+; Europe, Eucast breakpoints): 15.9%
- MIC90 (K. pneumoniae ESBL+; Europe, N=151): 32 µg/mL (≈ 54.6 µM)
- % R (resistance) (K. pneumoniae ESBL+; L. Amer, CLSI breakpoints): 14.8%
- MIC90 (K. pneumoniae ESBL+; L. Amer, N=209): > 32 µg/mL
- % R (resistance) (K. pneumoniae ESBL+; N America, CLSI breakpoints): 2.8%
- MIC90 (K. pneumoniae ESBL+; N America, N=108): 32 µg/mL (≈ 54.6 µM)
- % R (resistance) (E. coli ESBL−; Asia/Pac, Eucast breakpoints): 0.4%
- MIC90 (E. coli ESBL−; Asia/Pac, N=282): 4 µg/mL (≈ 6.83 µM)
- % R (resistance) (E. coli ESBL−; Europe, Eucast breakpoints): 0.3%
- MIC90 (E. coli ESBL−; Europe, N=1533): 4 µg/mL (≈ 6.83 µM)
- % R (resistance) (E. coli ESBL−; L. Amer, CLSI breakpoints): 0%
- MIC90 (E. coli ESBL−; L. Amer, N=389): 4 µg/mL (≈ 6.83 µM)
- % R (resistance) (E. coli ESBL−; N America, CLSI breakpoints): 0%
- MIC90 (E. coli ESBL−; N America, N=1172): 4 µg/mL (≈ 6.83 µM)
- % R (resistance) (E. cloacae CeftazS; Asia/Pac, Eucast breakpoints): 1%
- MIC90 (E. cloacae CeftazS; Asia/Pac, N=100): 2 µg/mL (≈ 3.42 µM)
- % R (resistance) (E. cloacae CeftazS; Europe, Eucast breakpoints): 1.1%
- MIC90 (E. cloacae CeftazS; Europe, N=183): 2 µg/mL (≈ 3.42 µM)
- % R (resistance) (E. cloacae CeftazS; L. Amer, CLSI breakpoints): 0%
- MIC90 (E. cloacae CeftazS; L. Amer, N=57): 16 µg/mL (≈ 27.3 µM)
- % R (resistance) (E. cloacae CeftazS; N America, CLSI breakpoints): 0%
- MIC90 (E. cloacae CeftazS; N America, N=210): 2 µg/mL (≈ 3.42 µM)
- % R (resistance) (A. baumanii; Asia/Pac, Eucast breakpoints): 74.9%
- MIC90 (A. baumanii; Asia/Pac, N=275): > 32 µg/mL
- % R (resistance) (A. baumanii; Europe, Eucast breakpoints): 58.6%
- MIC90 (A. baumanii; Europe, N=145): > 32 µg/mL
- % R (resistance) (A. baumanii; L. Amer, CLSI breakpoints): 57.5%
- MIC90 (A. baumanii; L. Amer, N=275): > 32 µg/mL
- % R (resistance) (A. baumanii; N America, CLSI breakpoints): 42.9%
- MIC90 (A. baumanii; N America, N=154): > 32 µg/mL
- % R (resistance) (K. pneumoniae ESBL−; Asia/Pac, Eucast breakpoints): 0.5%
- MIC90 (K. pneumoniae ESBL−; Asia/Pac, N=189): 2 µg/mL (≈ 3.42 µM)
- % R (resistance) (K. pneumoniae ESBL−; Europe, Eucast breakpoints): 0.3%
- MIC90 (K. pneumoniae ESBL−; Europe, N=361): 2 µg/mL (≈ 3.42 µM)
- % R (resistance) (K. pneumoniae ESBL−; L. Amer, CLSI breakpoints): 0%
- MIC90 (K. pneumoniae ESBL−; L. Amer, N=160): 2 µg/mL (≈ 3.42 µM)
- % R (resistance) (K. pneumoniae ESBL−; N America, CLSI breakpoints): 0%
- MIC90 (K. pneumoniae ESBL−; N America, N=671): 2 µg/mL (≈ 3.42 µM)
- % R (resistance) (E. coli ESBL+; Asia/Pac, Eucast breakpoints): 8.2%
- MIC90 (E. coli ESBL+; Asia/Pac, N=219): 8 µg/mL (≈ 13.7 µM)
- % R (resistance) (E. coli ESBL+; Europe, Eucast breakpoints): 2.2%
- MIC90 (E. coli ESBL+; Europe, N=274): 8 µg/mL (≈ 13.7 µM)
- % R (resistance) (E. coli ESBL+; L. Amer, CLSI breakpoints): 1.2%
- MIC90 (E. coli ESBL+; L. Amer, N=168): 8 µg/mL (≈ 13.7 µM)
- % R (resistance) (E. coli ESBL+; N America, CLSI breakpoints): 0.7%
- MIC90 (E. coli ESBL+; N America, N=134): 8 µg/mL (≈ 13.7 µM)
- % R (resistance) (Acinetobacter spp; Asia/Pac, Eucast breakpoints): 22.2%
- % R (resistance) (Acinetobacter spp; Europe, Eucast breakpoints): 39.5%
- MIC90 (Acinetobacter spp; Europe, N=43): > 32 µg/mL
- % R (resistance) (Acinetobacter spp; L. Amer, CLSI breakpoints): 22.2%
- % R (resistance) (Acinetobacter spp; N America, CLSI breakpoints): 9.5%
- MIC90 (Acinetobacter spp; N America, N=42): 8 µg/mL (≈ 13.7 µM)
- % R (resistance) (K. oxytoca; Asia/Pac, Eucast breakpoints): 0%
- MIC90 (K. oxytoca; Asia/Pac, N=17): 2 µg/mL (≈ 3.42 µM)
- % R (resistance) (K. oxytoca; Europe, Eucast breakpoints): 0%
- MIC90 (K. oxytoca; Europe, N=158): 2 µg/mL (≈ 3.42 µM)
- % R (resistance) (K. oxytoca; L. Amer, CLSI breakpoints): 8%
- MIC90 (K. oxytoca; L. Amer, N=25): 32 µg/mL (≈ 54.6 µM)
- % R (resistance) (K. oxytoca; N America, CLSI breakpoints): 0%
- MIC90 (K. oxytoca; N America, N=177): 2 µg/mL (≈ 3.42 µM)
- % R (resistance) (Enterobacter spp; Asia/Pac, Eucast breakpoints): 3.8%
- MIC90 (Enterobacter spp; Asia/Pac, N=52): 2 µg/mL (≈ 3.42 µM)
- % R (resistance) (Enterobacter spp; Europe, Eucast breakpoints): 0%
- MIC90 (Enterobacter spp; Europe, N=82): 4 µg/mL (≈ 6.83 µM)
- % R (resistance) (Enterobacter spp; L. Amer, CLSI breakpoints): 0%
- MIC90 (Enterobacter spp; L. Amer, N=42): 4 µg/mL (≈ 6.83 µM)
- % R (resistance) (Enterobacter spp; N America, CLSI breakpoints): 1%
- MIC90 (Enterobacter spp; N America, N=101): 2 µg/mL (≈ 3.42 µM)
